Measured values: PubChem BioAssay AID743115 (Vanderbilt Specialized Chemistry Center, 2013)
Calls of active or inactive are those of the source.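 The calls were made as follows: active = response above 60% of the acetylcholine maximum at the M5 muscarinic receptor, read as positive allosteric modulation; inactive = the rest.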

Molecular target: Muscarinic acetylcholine receptor M3 (Homo sapiens) (UniProt P20309)
Test: human M3 receptor positive allosteric modulators, dose response, selectivity assay for M5 PAM project, cell-based, CHO-K1 hM3, calcium flux, ACh EC20 (AID 743115)
Settings: CHO-K1 hM3, calcium flux Fluo-4, ACh EC20 potentiation; for % ACh max response: at 30 µM (top of the series)

Muscarinic acetylcholine receptor M3 (Homo sapiens), sequence (P20309 whole entry, looked up): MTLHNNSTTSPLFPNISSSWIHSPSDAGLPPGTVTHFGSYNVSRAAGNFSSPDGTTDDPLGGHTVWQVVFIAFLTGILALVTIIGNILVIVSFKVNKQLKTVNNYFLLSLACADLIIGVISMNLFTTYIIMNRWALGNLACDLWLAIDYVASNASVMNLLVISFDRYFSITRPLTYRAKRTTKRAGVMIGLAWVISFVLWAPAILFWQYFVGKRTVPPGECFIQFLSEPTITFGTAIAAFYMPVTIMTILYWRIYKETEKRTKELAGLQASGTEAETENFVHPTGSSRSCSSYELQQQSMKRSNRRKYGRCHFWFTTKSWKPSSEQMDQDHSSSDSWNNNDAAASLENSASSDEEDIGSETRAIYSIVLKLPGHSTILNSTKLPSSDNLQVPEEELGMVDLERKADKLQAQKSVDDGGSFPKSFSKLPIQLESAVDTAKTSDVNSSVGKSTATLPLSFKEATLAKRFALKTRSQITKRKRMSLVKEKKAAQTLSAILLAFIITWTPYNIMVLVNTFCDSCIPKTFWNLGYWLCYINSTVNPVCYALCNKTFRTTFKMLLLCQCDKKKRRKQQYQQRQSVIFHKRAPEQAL

Row | Compound | EC50 [nM] | % ACh max response
1 | CCN(Cc1ccccc1Cl)C(=O)C1CCN(S(=O)(=O)c2ccc3cn[nH]c3c2)CC1 | 2890 | –
2 | CCN(Cc1ccccc1C(F)(F)F)C(=O)C1CCN(S(=O)(=O)c2ccc3[nH]ncc3c2)CC1 | 2080 | –
3 | CCN(Cc1ccccc1)C(=O)C1CCN(S(=O)(=O)c2ccc(OC)cc2)CC1 | – | inactive
4 | CCN(Cc1ccccc1C(F)(F)F)C(=O)C1(F)CCN(S(=O)(=O)c2ccc3[nH]ncc3c2)CC1 | 1770 | –
5 | CCN(Cc1ccccc1C(F)(F)F)C(=O)C1CCN(S(=O)(=O)c2ccc3cn[nH]c3c2)CC1 | 4670 | –
6 | CCN(Cc1ccccc1)C(=O)C1CCN(S(=O)(=O)c2ccc3c(c2)OCCO3)CC1 | – | inactive
7 | CCN(Cc1ccccc1Cl)C(=O)C1CCN(S(=O)(=O)c2ccc3[nH]ncc3c2)CC1 | 520 | –
8 | CCN(C(=O)C1CCN(S(=O)(=O)c2ccc3[nH]ncc3c2)CC1)[C@H](C)c1ccccc1 | 2170 | –
9 | CCN(C(=O)C1CCN(S(=O)(=O)c2ccc(OC)cc2)CC1)[C@H](C)c1ccccc1 | – | inactive
